Laboratory results taken from patent publication US6472348B1, “Pyridone derivatives and herbicides” (Kumiai Chemical Industry Co., Ltd., priority 1996, dated 2002).

Experiments:
Assay type in all cases: in vivo
Parameters in all cases: scale not given here
cotton (Go) = experiment: Test Example 4: crop plant selectivity by upland field soil treatment (cotton), phytotoxicity; details: evaluated 21st day after application
Method in brief: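 Weeds and cotton, sown in sand and topped with soil, received a soil-applied treatment. Evaluation after three weeks in a greenhouse followed a standard rating scale.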

China jute (Ab) [1] = experiment: Test Example 5: crop plant selectivity by upland field soil treatment (wheat), herbicidal effects; details: 21st day after application
Method in brief: (§1)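 Wheat and weeds were sown in sand-filled pots and covered with soil, then treated by soil application. Plants grew in a greenhouse, and herbicidal effect and crop phytotoxicity were scored on a rating scale 21 days after application.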

[2] = system: common lambsquarters (Ch); experiment: as above; details: 21st day after application
Method in brief: as §1

green foxtail (Se) [3] = experiment: as above; details: 21st day after application
Method in brief: as §1

pale smartweed (Po) [4] = experiment: as above; details: 21st day after application
Method in brief: as §1

slender amaranth (Am) = experiment: as above; details: 21st day after application
Method in brief: as §1

China jute (Ab) [5] = experiment: Test Example 6: crop plant selectivity by upland field soil treatment (soybean), herbicidal effects; details: 21st day after application
Method in brief: (§2)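 Soybean and weeds sown in sand-filled pots and covered with soil, then treated by soil application. Plants grown in a greenhouse, with herbicidal effect and crop phytotoxicity scored on day 21 after application against a fixed rating scale.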

[6] = system: common lambsquarters (Ch); experiment: as above; details: 21st day after application
Method in brief: as §2

green foxtail (Se) [7] = experiment: as above; details: 21st day after application
Method in brief: as §2

pale smartweed (Po) [8] = experiment: as above; details: 21st day after application
Method in brief: as §2

## C#CC(C)Oc1cc(-c2cn(C)c(C(F)(F)F)cc2=O)c(F)cc1Cl (racemic) [Compound 6-10]
Cotton (Go); dose 1.6 g ai/10 a
  Phytotoxicity Go: 0
Cotton (Go); dose 6.3 g ai/10 a
  Phytotoxicity Go: 1
China jute (Ab) [1]; dose 1.6 g ai/10a
  Herbicidal effects Ab: 4
[2]; dose 1.6 g ai/10a
  Herbicidal effects Ch: 5
Green foxtail (Se) [3]; dose 1.6 g ai/10a
  Herbicidal effects Se: 4
Pale smartweed (Po) [4]; dose 1.6 g ai/10a
  Herbicidal effects Po: 5
Slender amaranth (Am); dose 1.6 g ai/10a
  Herbicidal effects Am: 5
China jute (Ab) [5]; dose 1.6 g ai/10a
  Herbicidal effects Ab: 4
[6]; dose 1.6 g ai/10a
  Herbicidal effects Ch: 5
Green foxtail (Se) [7]; dose 1.6 g ai/10a
  Herbicidal effects Se: 4
Pale smartweed (Po) [8]; dose 1.6 g ai/10a
  Herbicidal effects Po: 5

## COc1cc(-c2ccc(C(F)(F)F)n(C)c2=O)c(F)cc1Cl [1-15]
Cotton (Go); dose 1.6 g ai/10 a
  Phytotoxicity Go: 0
Cotton (Go); dose 6.3 g ai/10 a
  Phytotoxicity Go: 1
China jute (Ab) [1]; dose 1.6 g ai/10a
  Herbicidal effects Ab: 5
[2]; dose 1.6 g ai/10a
  Herbicidal effects Ch: 5
Green foxtail (Se) [3]; dose 1.6 g ai/10a
  Herbicidal effects Se: 5
Pale smartweed (Po) [4]; dose 1.6 g ai/10a
  Herbicidal effects Po: 5
Slender amaranth (Am); dose 1.6 g ai/10a
  Herbicidal effects Am: 5
China jute (Ab) [5]; dose 1.6 g ai/10a
  Herbicidal effects Ab: 5
[6]; dose 1.6 g ai/10a
  Herbicidal effects Ch: 5
Green foxtail (Se) [7]; dose 1.6 g ai/10a
  Herbicidal effects Se: 5
Pale smartweed (Po) [8]; dose 1.6 g ai/10a
  Herbicidal effects Po: 5

## C=CCOc1cc(-c2ccc(C(F)(F)F)n(C)c2=O)c(F)cc1Cl [1-16]
Cotton (Go); dose 1.6 g ai/10 a
  Phytotoxicity Go: 0
Cotton (Go); dose 6.3 g ai/10 a
  Phytotoxicity Go: 0
China jute (Ab) [1]; dose 1.6 g ai/10a
  Herbicidal effects Ab: 5
China jute (Ab) [1]; dose 6.3 g ai/10a
  Herbicidal effects Ab: 5
[2]; dose 1.6 g ai/10a
  Herbicidal effects Ch: 5
[2]; dose 6.3 g ai/10a
  Herbicidal effects Ch: 5
Green foxtail (Se) [3]; dose 1.6 g ai/10a
  Herbicidal effects Se: 5
Green foxtail (Se) [3]; dose 6.3 g ai/10a
  Herbicidal effects Se: 5
Pale smartweed (Po) [4]; dose 1.6 g ai/10a
  Herbicidal effects Po: 5
Pale smartweed (Po) [4]; dose 6.3 g ai/10a
  Herbicidal effects Po: 5
Slender amaranth (Am); dose 1.6 g ai/10a
  Herbicidal effects Am: 5
Slender amaranth (Am); dose 6.3 g ai/10a
  Herbicidal effects Am: 5
China jute (Ab) [5]; dose 1.6 g ai/10a
  Herbicidal effects Ab: 5
[6]; dose 1.6 g ai/10a
  Herbicidal effects Ch: 5
Green foxtail (Se) [7]; dose 1.6 g ai/10a
  Herbicidal effects Se: 5
Pale smartweed (Po) [8]; dose 1.6 g ai/10a
  Herbicidal effects Po: 5

## C#CC(C)Oc1cc(-c2ccc(C(F)(F)F)n(C)c2=O)c(F)cc1Cl (stereo not shown) [1-17]
Cotton (Go); dose 1.6 g ai/10 a
  Phytotoxicity Go: 0
Cotton (Go); dose 6.3 g ai/10 a
  Phytotoxicity Go: 0
China jute (Ab) [1]; dose 1.6 g ai/10a
  Herbicidal effects Ab: 5
[2]; dose 1.6 g ai/10a
  Herbicidal effects Ch: 5
Green foxtail (Se) [3]; dose 1.6 g ai/10a
  Herbicidal effects Se: 5
Pale smartweed (Po) [4]; dose 1.6 g ai/10a
  Herbicidal effects Po: 5
Slender amaranth (Am); dose 1.6 g ai/10a
  Herbicidal effects Am: 5
China jute (Ab) [5]; dose 1.6 g ai/10a
  Herbicidal effects Ab: 5
[6]; dose 1.6 g ai/10a
  Herbicidal effects Ch: 5
Green foxtail (Se) [7]; dose 1.6 g ai/10a
  Herbicidal effects Se: 5
Pale smartweed (Po) [8]; dose 1.6 g ai/10a
  Herbicidal effects Po: 5

## C#CCOc1cc(-c2ccc(C(F)(F)F)n(C)c2=O)c(F)cc1Cl [1-18]
Cotton (Go); dose 1.6 g ai/10 a
  Phytotoxicity Go: 1
Cotton (Go); dose 6.3 g ai/10 a
  Phytotoxicity Go: 1
China jute (Ab) [1]; dose 1.6 g ai/10a
  Herbicidal effects Ab: 5
[2]; dose 1.6 g ai/10a
  Herbicidal effects Ch: 5
Green foxtail (Se) [3]; dose 1.6 g ai/10a
  Herbicidal effects Se: 5
Pale smartweed (Po) [4]; dose 1.6 g ai/10a
  Herbicidal effects Po: 5
Slender amaranth (Am); dose 1.6 g ai/10a
  Herbicidal effects Am: 5
China jute (Ab) [5]; dose 1.6 g ai/10a
  Herbicidal effects Ab: 5
[6]; dose 1.6 g ai/10a
  Herbicidal effects Ch: 5
Green foxtail (Se) [7]; dose 1.6 g ai/10a
  Herbicidal effects Se: 5
Pale smartweed (Po) [8]; dose 1.6 g ai/10a
  Herbicidal effects Po: 5

## Cn1c(C(F)(F)F)ccc(-c2cc(OCC#N)c(Cl)cc2F)c1=O [1-25]
Cotton (Go); dose 6.3 g ai/10 a
  Phytotoxicity Go: 1
China jute (Ab) [5]; dose 6.3 g ai/10a
  Herbicidal effects Ab: 5
[6]; dose 6.3 g ai/10a
  Herbicidal effects Ch: 5
Green foxtail (Se) [7]; dose 6.3 g ai/10a
  Herbicidal effects Se: 5
Pale smartweed (Po) [8]; dose 6.3 g ai/10a
  Herbicidal effects Po: 5

## C#CCOc1cc(-c2ccc(C(F)(F)F)n(C)c2=O)c(Cl)cc1Cl [1-30]
Cotton (Go); dose 1.6 g ai/10 a
  Phytotoxicity Go: 0
Cotton (Go); dose 6.3 g ai/10 a
  Phytotoxicity Go: 1
China jute (Ab) [1]; dose 1.6 g ai/10a
  Herbicidal effects Ab: 5
[2]; dose 1.6 g ai/10a
  Herbicidal effects Ch: 5
Green foxtail (Se) [3]; dose 1.6 g ai/10a
  Herbicidal effects Se: 5
Pale smartweed (Po) [4]; dose 1.6 g ai/10a
  Herbicidal effects Po: 5
Slender amaranth (Am); dose 1.6 g ai/10a
  Herbicidal effects Am: 5
China jute (Ab) [5]; dose 1.6 g ai/10a
  Herbicidal effects Ab: 5
[6]; dose 1.6 g ai/10a
  Herbicidal effects Ch: 5
Green foxtail (Se) [7]; dose 1.6 g ai/10a
  Herbicidal effects Se: 5
Pale smartweed (Po) [8]; dose 1.6 g ai/10a
  Herbicidal effects Po: 5

## CC(C)Sc1cc(-c2ccc(C(F)(F)F)n(C)c2=O)c(F)cc1Cl [1-43]
Cotton (Go); dose 6.3 g ai/10 a
  Phytotoxicity Go: 0
China jute (Ab) [1]; dose 6.3 g ai/10a
  Herbicidal effects Ab: 4
[2]; dose 6.3 g ai/10a
  Herbicidal effects Ch: 5
Green foxtail (Se) [3]; dose 6.3 g ai/10a
  Herbicidal effects Se: 5
Pale smartweed (Po) [4]; dose 6.3 g ai/10a
  Herbicidal effects Po: 5
Slender amaranth (Am); dose 6.3 g ai/10a
  Herbicidal effects Am: 5
China jute (Ab) [5]; dose 6.3 g ai/10a
  Herbicidal effects Ab: 4
[6]; dose 6.3 g ai/10a
  Herbicidal effects Ch: 5
Green foxtail (Se) [7]; dose 6.3 g ai/10a
  Herbicidal effects Se: 5
Pale smartweed (Po) [8]; dose 6.3 g ai/10a
  Herbicidal effects Po: 5

## C#CCSc1cc(-c2ccc(C(F)(F)F)n(C)c2=O)c(F)cc1Cl [1-44]
Cotton (Go); dose 6.3 g ai/10 a
  Phytotoxicity Go: 1
China jute (Ab) [1]; dose 6.3 g ai/10a
  Herbicidal effects Ab: 5
[2]; dose 6.3 g ai/10a
  Herbicidal effects Ch: 5
Green foxtail (Se) [3]; dose 6.3 g ai/10a
  Herbicidal effects Se: 5
Pale smartweed (Po) [4]; dose 6.3 g ai/10a
  Herbicidal effects Po: 5
Slender amaranth (Am); dose 6.3 g ai/10a
  Herbicidal effects Am: 5
China jute (Ab) [5]; dose 6.3 g ai/10a
  Herbicidal effects Ab: 5
[6]; dose 6.3 g ai/10a
  Herbicidal effects Ch: 5
Green foxtail (Se) [7]; dose 6.3 g ai/10a
  Herbicidal effects Se: 5
Pale smartweed (Po) [8]; dose 6.3 g ai/10a
  Herbicidal effects Po: 5

## CCOC(=O)c1cc(-c2ccc(C(F)(F)F)n(C)c2=O)c(F)cc1Cl [1-65]
Cotton (Go); dose 1.6 g ai/10 a
  Phytotoxicity Go: 0
Cotton (Go); dose 6.3 g ai/10 a
  Phytotoxicity Go: 0
China jute (Ab) [1]; dose 1.6 g ai/10a
  Herbicidal effects Ab: 5
China jute (Ab) [1]; dose 6.3 g ai/10a
  Herbicidal effects Ab: 5
[2]; dose 1.6 g ai/10a
  Herbicidal effects Ch: 5
[2]; dose 6.3 g ai/10a
  Herbicidal effects Ch: 5
Green foxtail (Se) [3]; dose 1.6 g ai/10a
  Herbicidal effects Se: 5
Green foxtail (Se) [3]; dose 6.3 g ai/10a
  Herbicidal effects Se: 5
Pale smartweed (Po) [4]; dose 1.6 g ai/10a
  Herbicidal effects Po: 5
Pale smartweed (Po) [4]; dose 6.3 g ai/10a
  Herbicidal effects Po: 5
Slender amaranth (Am); dose 1.6 g ai/10a
  Herbicidal effects Am: 5
Slender amaranth (Am); dose 6.3 g ai/10a
  Herbicidal effects Am: 5
China jute (Ab) [5]; dose 1.6 g ai/10a
  Herbicidal effects Ab: 5
China jute (Ab) [5]; dose 6.3 g ai/10a
  Herbicidal effects Ab: 5
[6]; dose 1.6 g ai/10a
  Herbicidal effects Ch: 5
[6]; dose 6.3 g ai/10a
  Herbicidal effects Ch: 5
Green foxtail (Se) [7]; dose 1.6 g ai/10a
  Herbicidal effects Se: 5
Green foxtail (Se) [7]; dose 6.3 g ai/10a
  Herbicidal effects Se: 5
Pale smartweed (Po) [8]; dose 1.6 g ai/10a
  Herbicidal effects Po: 5
Pale smartweed (Po) [8]; dose 6.3 g ai/10a
  Herbicidal effects Po: 5

## Cc1cc(-c2ccc(C(F)(F)F)n(C)c2=O)c(F)cc1Cl [1-90]
Cotton (Go); dose 6.3 g ai/10 a
  Phytotoxicity Go: 1
China jute (Ab) [1]; dose 6.3 g ai/10a
  Herbicidal effects Ab: 5
[2]; dose 6.3 g ai/10a
  Herbicidal effects Ch: 5
Green foxtail (Se) [3]; dose 6.3 g ai/10a
  Herbicidal effects Se: 5
Pale smartweed (Po) [4]; dose 6.3 g ai/10a
  Herbicidal effects Po: 5
Slender amaranth (Am); dose 6.3 g ai/10a
  Herbicidal effects Am: 5
China jute (Ab) [5]; dose 1.6 g ai/10a
  Herbicidal effects Ab: 5
China jute (Ab) [5]; dose 6.3 g ai/10a
  Herbicidal effects Ab: 5
[6]; dose 1.6 g ai/10a
  Herbicidal effects Ch: 5
[6]; dose 6.3 g ai/10a
  Herbicidal effects Ch: 5
Green foxtail (Se) [7]; dose 1.6 g ai/10a
  Herbicidal effects Se: 5
Green foxtail (Se) [7]; dose 6.3 g ai/10a
  Herbicidal effects Se: 5
Pale smartweed (Po) [8]; dose 1.6 g ai/10a
  Herbicidal effects Po: 5
Pale smartweed (Po) [8]; dose 6.3 g ai/10a
  Herbicidal effects Po: 5

## COCSc1cc(-c2ccc(C(F)(F)F)n(C)c2=O)c(F)cc1Cl [1-91]
Cotton (Go); dose 1.6 g ai/10 a
  Phytotoxicity Go: 0
Cotton (Go); dose 6.3 g ai/10 a
  Phytotoxicity Go: 1
China jute (Ab) [1]; dose 1.6 g ai/10a
  Herbicidal effects Ab: 5
[2]; dose 1.6 g ai/10a
  Herbicidal effects Ch: 5
Green foxtail (Se) [3]; dose 1.6 g ai/10a
  Herbicidal effects Se: 5
Pale smartweed (Po) [4]; dose 1.6 g ai/10a
  Herbicidal effects Po: 5
Slender amaranth (Am); dose 1.6 g ai/10a
  Herbicidal effects Am: 5
China jute (Ab) [5]; dose 1.6 g ai/10a
  Herbicidal effects Ab: 5
China jute (Ab) [5]; dose 6.3 g ai/10a
  Herbicidal effects Ab: 5
[6]; dose 1.6 g ai/10a
  Herbicidal effects Ch: 5
[6]; dose 6.3 g ai/10a
  Herbicidal effects Ch: 5
Green foxtail (Se) [7]; dose 1.6 g ai/10a
  Herbicidal effects Se: 5
Green foxtail (Se) [7]; dose 6.3 g ai/10a
  Herbicidal effects Se: 5
Pale smartweed (Po) [8]; dose 1.6 g ai/10a
  Herbicidal effects Po: 5
Pale smartweed (Po) [8]; dose 6.3 g ai/10a
  Herbicidal effects Po: 5
